# Values of other authors in patent US20090196923A1, “CONTROLLED RELEASE FORMULATION COMPRISING ANTI-EPILEPTIC DRUGS” (priority 2006, published 2009).
smiles,measurement,value
"NC(=O)N1c2ccccc2CC(=O)c2ccccc21 [Oxcarbazepine, 10, 11-dihydro-10-oxocarbamazepine]",water solubility,poor water solubility
